Assay [1] deals with control sera (pooled serum of ten healthy LUMC hospital workers; commercial negative donor pooled serum from the Dutch bloodbank). It counts as binding, human. Details: Binding of Control serum LUMC to linear peptides / Binding of Control serum Blood-bank to linear peptides / Binding of Control serum LUMC to looped peptides / Binding of Control Serum Blood-Bank to Looped peptides / Binding of Control serum LUMC to linear peptides of the protein M of SARS-CoV Urbani / Binding of Control serum Blood-bank to linear peptides of the protein M of SARS-CoV Urbani / Binding of Control serum LUMC to looped peptides of the protein M of SARS-CoV Urbani / Binding of Control Serum Blood-Bank to Looped peptides of the protein M of SARS-CoV Urbani: unit not given here.

For assay [2], the system named is rabbit serum obtained by immunizing a rabbit with the SARS-CoV strain Frankfurt 1. It counts as binding. The arrangement: Binding of a rabbit serum to linear peptides / Binding of a rabbit serum to looped peptides / Rabbit serum linear peptides / Rabbit serum looped peptides / Binding of a rabbit serum to linear peptides of protein N of SARS-CoV Urbani (Rabbit serum linear peptides) / Binding of a rabbit serum to looped/cyclic peptides of protein N of SARS-CoV Urbani (Rabbit serum looped peptides): unit not given here.

The subject of assay [3] is antibodies in sera from SARS patients (sera 1a, 1b, 2, 6, 37, 62, London, SARS-yellow, SARS-green). It counts as binding, human. Details: Binding of serum 6 to linear peptides of protein X1 of SARS-CoV Urbani / Binding of serum 37 to linear peptides of protein X1 of SARS-CoV Urbani / Binding of serum 6 to looped/cyclic peptide (PEPSCAN-ELISA) / Binding of serum 37 to looped/cyclic peptide (PEPSCAN-ELISA) / Binding of serum 37 to looped/cyclic peptides of protein X1 of SARS-CoV Urbani / Binding of serum 6 to linear peptides of protein X2 / Binding of serum 37 to linear peptides of protein X2 / Binding of serum 37 to looped/cyclic peptides of protein X2 of SARS-CoV Urbani / Binding of serum 6 to linear peptides of protein M of SARS-CoV Urbani / Binding of serum 37 to linear peptides of protein M of SARS-CoV Urbani / Binding of serum 6 to looped/cyclic peptides of protein M of SARS-CoV Urbani / Binding of serum 37 to looped/cyclic peptides of protein M of SARS-CoV Urbani / Binding of serum 6 to linear peptides of protein X3 of SARS-CoV Urbani / Binding of serum 37 to linear peptides of protein X3 of SARS-CoV Urbani / Binding of serum 37 to looped/cyclic peptides of protein X3 of SARS-CoV Urbani / Binding of serum 6 to linear peptides of protein X4 of SARS-CoV Urbani / Binding of serum 37 to linear peptides of protein X4 of SARS-CoV Urbani / Binding of serum 37 to looped/cyclic peptides of protein X4 of SARS-CoV Urbani / Binding of serum 6 to linear peptides of protein X5 of SARS-CoV Urbani / Binding of serum 37 to linear peptides of protein X5 of SARS-CoV Urbani / Binding of serum 37 to looped/cyclic peptides of protein X5 of SARS-CoV Urbani / Binding of serum 6 to linear peptides of protein N of SARS-CoV Urbani / Binding of serum 37 to linear peptides of protein N of SARS-CoV Urbani / Binding of serum 6 to linear peptide (PEPSCAN-ELISA) / Binding of serum 1a to looped/cyclic peptides of protein N of SARS-CoV Urbani / Binding of serum 1b to looped/cyclic peptides of protein N of SARS-CoV Urbani / Binding of serum 2 to looped/cyclic peptides of protein N of SARS-CoV Urbani / Binding of serum 6 to looped/cyclic peptides of protein N of SARS-CoV Urbani / Binding of serum 37 to looped/cyclic peptides of protein N of SARS-CoV Urbani / Binding of serum 62 to looped/cyclic peptides of protein N of SARS-CoV Urbani / Binding of serum London to looped/cyclic peptides of protein N of SARS-CoV Urbani / Binding of serum SARS-green to looped/cyclic peptides of protein N of SARS-CoV Urbani: unit not given here.

As to ELLIQQWIQFMMSRR, in assay [1], the “Binding of Control Serum Blood-Bank to Looped peptides” value came out at 0.6, the “Binding of Control serum Blood-bank to linear peptides” value stood at 0.5, the “Binding of Control serum LUMC to linear peptides” value was 0.4 and the “Binding of Control serum LUMC to looped peptides” value is 0.5. In addition, in assay [2], the “Binding of a rabbit serum to linear peptides” value came out at 0.4 and the “Binding of a rabbit serum to looped peptides” value was found to be 0.4. In addition, in assay [3], the “Binding of serum 1a to linear peptides of protein X2” value is listed as 0.7, the “Binding of serum 1a to looped/cyclic peptides of protein X2 of SARS-CoV Urbani” value is on record as 0.5, the “Binding of serum 1b to linear peptides of protein X2” value is on record as 0.5 and the “Binding of serum 1b to looped/cyclic peptides of protein X2 of SARS-CoV Urbani” value is given as 0.4. Further, in assay [3], the “Binding of serum 2 to linear peptides of protein X2” value amounted to 0.4, the “Binding of serum 2 to looped/cyclic peptides of protein X2 of SARS-CoV Urbani” value is 0.5, the “Binding of serum 6 to linear peptides of protein X2” value worked out at 0.3 and the “Binding of serum 6 to looped/cyclic peptides of protein X2 of SARS-CoV Urbani” value stood at 0.3. In assay [3], the “Binding of serum 37 to linear peptides of protein X2” value amounted to 0.6, the “Binding of serum 37 to looped/cyclic peptides of protein X2 of SARS-CoV Urbani” value amounted to 0.5, the “Binding of serum 62 to linear peptides of protein X2” value was determined as 0.6 and the “Binding of serum 62 to looped/cyclic peptides of protein X2 of SARS-CoV Urbani” value worked out at 0.6. In assay [3], the “Binding of serum London to linear peptides of protein X2” value is 0.4, the “Binding of serum London to looped/cyclic peptides of protein X2 of SARS-CoV Urbani” value turned out to be 0.2, the “Binding of serum SARS-green to linear peptides of protein X2” value came out at 0.6 and the “Binding of serum SARS-green to looped/cyclic peptides of protein X2 of SARS-CoV Urbani” value is recorded as 0.4. In assay [3], the “Binding of serum SARS-yellow to linear peptides of protein X2” value turned out to be 0.8 and the “Binding of serum SARS-yellow to looped/cyclic peptides of protein X2 of SARS-CoV Urbani” value is recorded as 0.4.

With ELVIGAVIIRGHLRM, in assay [1], the “Binding of Control Serum Blood-Bank to Looped peptides of the protein M of SARS-CoV Urbani” value stood at 0.7, the “Binding of Control serum Blood-bank to linear peptides of the protein M of SARS-CoV Urbani” value is reported as 0.7, the “Binding of Control serum LUMC to linear peptides of the protein M of SARS-CoV Urbani” value is 0.5 and the “Binding of Control serum LUMC to looped peptides of the protein M of SARS-CoV Urbani” value was 0.6. Besides, in assay [2], the “Rabbit serum linear peptides” value turned out to be 0.8 and the “Rabbit serum looped peptides” value was determined as 0.1. Moreover, in assay [3], the “Binding of serum 1a to linear peptides of protein M of SARS-CoV Urbani” value is 0.8, the “Binding of serum 1a to looped/cyclic peptides of protein M of SARS-CoV Urbani” value stood at 0.8, the “Binding of serum 1b to linear peptides of protein M of SARS-CoV Urbani” value is 0.6 and the “Binding of serum 1b to looped/cyclic peptides of protein M of SARS-CoV Urbani” value was found to be 0.4. Also, in assay [3], the “Binding of serum 2 to linear peptides of protein M of SARS-CoV Urbani” value came to 0.7, the “Binding of serum 2 to looped/cyclic peptides of protein M of SARS-CoV Urbani” value is listed as 0.7, the “Binding of serum 6 to linear peptides of protein M of SARS-CoV Urbani” value is given as 0.3 and the “Binding of serum 6 to looped/cyclic peptides of protein M of SARS-CoV Urbani” value is 0.7. Further, in assay [3], the “Binding of serum 37 to linear peptides of protein M of SARS-CoV Urbani” value was 0.8, the “Binding of serum 37 to looped/cyclic peptides of protein M of SARS-CoV Urbani” value was determined as 0.7, the “Binding of serum 62 to linear peptides of protein M of SARS-CoV Urbani” value was 0.8 and the “Binding of serum 62 to looped/cyclic peptides of protein M of SARS-CoV Urbani” value was 0.6. In addition, in assay [3], the “Binding of serum London to linear peptides of protein M of SARS-CoV Urbani” value is on record as 0.3, the “Binding of serum London to looped/cyclic peptides of protein M of SARS-CoV Urbani” value stood at 0.2, the “Binding of serum SARS-green to linear peptides of protein M of SARS-CoV Urbani” value was found to be 0.3 and the “Binding of serum SARS-green to looped/cyclic peptides of protein M of SARS-CoV Urbani” value was determined as 0.3. In addition, in assay [3], the “Binding of serum SARS-yellow to linear peptides of protein M of SARS-CoV Urbani” value was determined as 0.1 and the “Binding of serum SARS-yellow to looped/cyclic peptides of protein M of SARS-CoV Urbani” value worked out at 0.6.

Consider ENATFFIFNKLVKDP, for which, in assay [1], the “Binding of Control Serum Blood-Bank to Looped peptides” value was 0.7, the “Binding of Control serum Blood-bank to linear peptides” value is 0.5, the “Binding of Control serum LUMC to linear peptides” value came to 0.4 and the “Binding of Control serum LUMC to looped peptides” value amounted to 0.4. In assay [2], the “Binding of a rabbit serum to linear peptides” value came to 0.1 and the “Binding of a rabbit serum to looped peptides” value is 0.5. In assay [3], the “Binding of serum 1a to linear peptides of protein X1 of SARS-CoV Urbani” value stood at 0.6, the “Binding of serum 1a to looped/cyclic peptides of protein X1 of SARS-CoV Urbani” value came out at 0.4, the “Binding of serum 1b to linear peptides of protein X1 of SARS-CoV Urbani” value was determined as 0.4 and the “Binding of serum 1b to looped/cyclic peptides of protein X1 of SARS-CoV Urbani” value is reported as 0.3. Moreover, in assay [3], the “Binding of serum 2 to linear peptides of protein X1 of SARS-CoV Urbani” value is given as 0.5, the “Binding of serum 2 to looped/cyclic peptides of protein X1 of SARS-CoV Urbani” value worked out at 0.5, the “Binding of serum 6 to linear peptides of protein X1 of SARS-CoV Urbani” value is 0.4 and the “Binding of serum 6 to looped/cyclic peptides of protein X1 of SARS-CoV Urbani” value is 0.4. In assay [3], the “Binding of serum 37 to linear peptides of protein X1 of SARS-CoV Urbani” value is 0.5, the “Binding of serum 37 to looped/cyclic peptides of protein X1 of SARS-CoV Urbani” value came to 0.4, the “Binding of serum 62 to linear peptides of protein X1 of SARS-CoV Urbani” value is listed as 0.4 and the “Binding of serum 62 to looped/cyclic peptides of protein X1 of SARS-CoV Urbani” value turned out to be 0.5. Besides, in assay [3], the “Binding of serum London to linear peptides of protein X1 of SARS-CoV Urbani” value is given as 0.2, the “Binding of serum London to looped/cyclic peptides of protein X1 of SARS-CoV Urbani” value came to 0.2, the “Binding of serum SARS-green to linear peptides of protein X1 of SARS-CoV Urbani” value worked out at 0.0 and the “Binding of serum SARS-green to looped/cyclic peptides of protein X1 of SARS-CoV Urbani” value turned out to be 0.2. In assay [3], the “Binding of serum SARS-yellow to linear peptides of protein X1 of SARS-CoV Urbani” value was 0.2 and the “Binding of serum SARS-yellow to looped/cyclic peptides of protein X1 of SARS-CoV Urbani” value is on record as 0.2.

Turning to EQWNLVIGFLFLAWI, in assay [1], the “Binding of Control Serum Blood-Bank to Looped peptides of the protein M of SARS-CoV Urbani” value is recorded as 0.6, the “Binding of Control serum Blood-bank to linear peptides of the protein M of SARS-CoV Urbani” value is recorded as 0.5, the “Binding of Control serum LUMC to linear peptides of the protein M of SARS-CoV Urbani” value was found to be 0.4 and the “Binding of Control serum LUMC to looped peptides of the protein M of SARS-CoV Urbani” value worked out at 0.7. Besides, in assay [2], the “Rabbit serum linear peptides” value is 0.2 and the “Rabbit serum looped peptides” value is given as 0.4. In addition, in assay [3], the “Binding of serum 1a to linear peptides of protein M of SARS-CoV Urbani” value is 0.7, the “Binding of serum 1a to looped/cyclic peptides of protein M of SARS-CoV Urbani” value worked out at 0.7, the “Binding of serum 1b to linear peptides of protein M of SARS-CoV Urbani” value worked out at 0.5 and the “Binding of serum 1b to looped/cyclic peptides of protein M of SARS-CoV Urbani” value was 0.6. In assay [3], the “Binding of serum 2 to linear peptides of protein M of SARS-CoV Urbani” value was 0.5, the “Binding of serum 2 to looped/cyclic peptides of protein M of SARS-CoV Urbani” value was determined as 0.6, the “Binding of serum 6 to linear peptides of protein M of SARS-CoV Urbani” value is listed as 0.5 and the “Binding of serum 6 to looped/cyclic peptides of protein M of SARS-CoV Urbani” value amounted to 0.4. Also, in assay [3], the “Binding of serum 37 to linear peptides of protein M of SARS-CoV Urbani” value is recorded as 0.4, the “Binding of serum 37 to looped/cyclic peptides of protein M of SARS-CoV Urbani” value was 0.7, the “Binding of serum 62 to linear peptides of protein M of SARS-CoV Urbani” value stood at 0.5 and the “Binding of serum 62 to looped/cyclic peptides of protein M of SARS-CoV Urbani” value is listed as 0.7. Further, in assay [3], the “Binding of serum London to linear peptides of protein M of SARS-CoV Urbani” value is on record as 0.4, the “Binding of serum London to looped/cyclic peptides of protein M of SARS-CoV Urbani” value turned out to be 0.2, the “Binding of serum SARS-green to linear peptides of protein M of SARS-CoV Urbani” value is recorded as 0.4 and the “Binding of serum SARS-green to looped/cyclic peptides of protein M of SARS-CoV Urbani” value is given as 0.4. In addition, in assay [3], the “Binding of serum SARS-yellow to linear peptides of protein M of SARS-CoV Urbani” value is on record as 0.3 and the “Binding of serum SARS-yellow to looped/cyclic peptides of protein M of SARS-CoV Urbani” value turned out to be 0.6.
